# According to patent US20260216166A1, “COMPOUND FOR TREATMENT OF ERECTILE DYSFUNCTION” (Initiator Pharma A/S, priority 2023, published 2026):
# “Also recorded” adds a separate entry of the source.
# How the values were obtained:
# [1] = tested on: rat corpus cavernosum strips; assay: Isometric tension of isolated rat corpus cavernosum strips
# Procedure: For functional studies in corpus cavernosum strips, the penis was removed by cutting the crura corpora cavernosa at the point of adhesion to the lower pubic bone, and the corpora cavernosa were then dissected free. The penis was submerged immediately in ice-cold (4° C.) PSS. The tunica albuginea was carefully opened from its proximal extremity of the corpus cavernosum towards the penile shaft and the erectile tissue within the corpus cavernosum was microsurgically dissected free. Change in isometric tension of corpus cavernosum strips (0.5×0.5×3 mm) were investigated in a tissue organ bath system (750TOBS, Danish Myotechnology, Aarhus, Denmark). Silk ligatures were applied at both ends of the strip preparations, which were then suspended between two L-formed metal prongs in thermostatically controlled organ baths (5 ml, 37° C.) containing PSS aerated with a mixture of 5% CO2 in air (pH 7.4). The bath fluid was routinely changed every 20 min and replaced with fresh PSS, also kept at 37° C. During an equilibration period of 60 min, tension was adjusted until a mean stable tension of 1.2 mN was obtained, as described earlier.
# To test the contractility of the preparations, they were exposed to a potassium physiological saline solution (KPSS) of 125 mM and phenylephrine (10^-6 M), after each contraction acetylcholine was administrated to check endothelium-dependent relaxations.
# To investigate the effect of IP2015 on corpus cavernosum strips, the drug (10 9-3×10^-4 M) was administered either in preparations at baseline tension or contracted with phenylephrine (10^-6 M) in the absence or presence of L-NOARG (10 4 M), a NO synthase inhibitor, sildenafil (10^-7 M), a PDE5 inhibitor, a dopamine D1 receptor antagonist, SCH23390, and a dopamine D2 receptor antagonist, clozapine (10^-6 M). The effect of vehicle was also investigated.
# male patients with ED = assay: RigiScan assessment during visual stimulus challenge in male patients with ED; format: in vivo, human; set-up: individual RAU value at the base / individual TAU value at the tip / individual RAU value at the tip / individual TAU value at the base: unit not given here
# Description: The RigiScan Plus Monitor consists of two loops, one to be placed around the base of the penis and the other towards the tip. The ambulatory monitor uses tip and base penile loops that adjust by tightening slightly at discrete time intervals to measure and record penile rigidity and tumescence. Each loop contains a cable that moves freely inside a conduit. Each loop takes a measurement every 15 seconds. The loop gently tightens with a linear force of 4 ounces (114 g) and then immediately releases and the tissue rebounds to its unloaded state. The RigiScan Plus Monitor then takes a tumescence measurement. After the tumescence measurement is taken, it is compared to the previous samples. When a 6 mm increase in tumescence is detected, representing possible erectile activity, the RigiScan Plus Monitor takes a second measurement every 30 seconds. After tumescence is measured, the loops tighten a second time around the circumference of the penis with a linear force of 10 ounces (283.5 g). The RigiScan Plus Monitor takes a measurement when this force is applied to record a cross sectional response to radial compression. This is how rigidity is measured^1. Data were recorded on a monitor strapped to the thigh of the subjects/participants and downloaded onto a computer after the recording session. Subjects/participants were instructed on how to self-apply the RigiScan Plus Monitor by the Investigator and were advised to wear loose fitting clothing during the residential stay at the unit.
# The study was an exploratory Phase II, randomised, placebo-controlled, double-blind, crossover study, investigating the effects of a single oral dose of IP2015 on erectile function in males with ED. A dose level of 10 mg was selected. Patients were enrolled into two cohorts. Both cohorts participated in two periods (Period 1 and Period 2) and received a single dose of IP2015 and a single dose of placebo.
# Patients were assessed for efficacy using the RigiScan Plus Monitor during the stimulus challenge at predose and 1, 4 and 8-hour postdose on Day 1 of each treatment period.
# The design of the stimulus challenge is outlined in FIG. 3. Predose and 1, 4 and 8-hour postdose, the patients were asked to watch a 20-minute digital clip in a private room. The digital clip consisted of a 10-minute neutral digital clip followed by a 10-minute digital clip consisting of heterosexual pornography. The study staff started the digital clip and then left the room, during which there was a 1-minute delay before the neutral digital clip commenced. The neutral and pornographic digital clip were different at each assessment. RigiScan assessments were recorded through the assessment period. The RigiScan Plus Monitor was applied for approximately 20 minutes on each occasion. The patient was semi-recumbent during the assessment.
# The RigiScan measurement parameters were treated as efficacy outcomes and calculated in a similar fashion as in Example 2.
# Effects of IP2015 on PD parameters were analysed with a generalised mixed regression model using a PD parameter as responsible variable, treatment (active and placebo), timepoint, period (1 and 2), sequence (active-placebo, placebo-active), interaction between treatment and timepoint as mixed effects, baseline measurements as a covariate, and patient as a random effect. This model was applied to each PD parameter. The treatment difference between active and placebo at different timepoints together with 95% CIs was derived from the generalized mixed regression model. For a continuous outcome, treatment difference was measured as the difference in LS mean; for a binary outcome, treatment difference was measured as the odds ratio. In case of model non-convergence due to small sample size at some timepoints, those timepoints could be pooled with neighbouring timepoints.
# [2] = 10 mg, 4 hours postdose, N = 12
# [3] = 10 mg, 4 hours postdose, statistically significant
compound,measurement,setting,value
"COc1cc2ccc(OC3CC4CCC(C3)N4)cc2oc1=O (centres unmarked) [IP2015, 7-[(8-azabicyclo[3.2.1]octan-3-yl)oxy]-3-methoxy-chromen-2-one]",relaxation of corpus cavernosum strips,"[1]; added at basal tension, increasing concentrations",concentration-dependently induced relaxation; also recorded: induced concentration-dependent relaxations; also recorded: induces relaxations
same,IP2015 relaxation in preparations with and without endothelium,"[1]; corpus cavernosum strips, n=5",observed in preparations with endothelium but not in preparations without endothelium
same,"baseline circumference at the tip, LS mean difference compared to placebo","male patients with ED; 10 mg, 1 hour postdose, 95% CI: 0.02, 1.05, significantly higher",0.53
same,"Average event rigidity, Base, LS Mean Difference of IP2015 − Placebo","male patients with ED; 10 mg, 4 hours postdose",6.92%
same,"Average event rigidity, Tip, LS Mean Difference of IP2015 − Placebo","male patients with ED; 10 mg, 4 hours postdose",10.21%
same,"Average events of tumescence, Base, LS Mean Difference of IP2015 − Placebo","male patients with ED; 10 mg, 4 hours postdose",1.05
same,"Average events of tumescence, Tip, LS Mean Difference of IP2015 − Placebo","male patients with ED; 10 mg, 4 hours postdose",1.05
same,"Baseline circumference, Base, LS Mean Difference of IP2015 − Placebo","male patients with ED; 10 mg, 4 hours postdose",−0.28
same,"Baseline circumference, Tip, LS Mean Difference of IP2015 − Placebo","male patients with ED; 10 mg, 4 hours postdose",−0.21
same,"Event duration, LS Mean Difference of IP2015 − Placebo","male patients with ED; 10 mg, 4 hours postdose",8.20 % of session
same,"RAU, Base, LS Mean Difference of IP2015 − Placebo","male patients with ED; 10 mg, 4 hours postdose",2.33
same,"TAU, Tip, LS Mean Difference of IP2015 − Placebo","male patients with ED; 10 mg, 4 hours postdose",1.42
same,"Time rigid 80-100%, Base, LS Mean Difference of IP2015 − Placebo","male patients with ED; 10 mg, 4 hours postdose",0.03
same,"Total event duration, LS Mean Difference of IP2015 − Placebo","male patients with ED; 10 mg, 4 hours postdose",0.05 min
same,"Total events, LS Mean Difference of IP2015 − Placebo","male patients with ED; 10 mg, 4 hours postdose",0.03
same,"time rigid 80%-100% at the tip, RAU at the tip and TAU at the base versus placebo","male patients with ED; 10 mg, 4 hours postdose",statistically significant compared to placebo
same,patients appearing to respond to treatment (individual RAU and TAU values),"male patients with ED; 10 mg, 4 hours postdose, 12 patients",3
same,"Average event rigidity, Base, Mean (SD)",male patients with ED; [2],20.83 (30.61) %
same,"Average event rigidity, Tip, Mean (SD)",male patients with ED; [2],19.58 (29.42) %
same,"Average events of tumescence, Base, Mean (SD)",male patients with ED; [2],3.49 (4.35)
same,"Average events of tumescence, Tip, Mean (SD)",male patients with ED; [2],3.33 (4.16)
same,"Baseline circumference, Base, Mean (SD)",male patients with ED; [2],7.21 (1.54)
same,"Baseline circumference, Tip, Mean (SD)",male patients with ED; [2],6.82 (1.16)
same,"Event duration, Mean (SD)",male patients with ED; [2],17.75 (27.72) % of session
same,"RAU, Base, Mean (SD)",male patients with ED; [2],3.50 (6.82)
same,"RAU, Tip, Mean (SD)",male patients with ED; [2],3.25 (6.25)
same,"TAU, Base, Mean (SD)",male patients with ED; [2],2.83 (4.97)
same,"TAU, Tip, Mean (SD)",male patients with ED; [2],2.17 (3.59)
same,"Time rigid 80-100%, Base, Mean (SD)",male patients with ED; [2],0.04 (0.11)
same,"Time rigid 80-100%, Tip, Mean (SD)",male patients with ED; [2],0.04 (0.10)
same,"Total event duration, Mean (SD)",male patients with ED; [2],0.09 (0.14) mins
same,"Total events, Mean (SD)",male patients with ED; [2],0.42 (0.51)
same,"RAU, Tip, LS Mean Difference of IP2015 − Placebo",male patients with ED; [3],2.54
same,"TAU, Base, LS Mean Difference of IP2015 − Placebo",male patients with ED; [3],1.95
same,"Time rigid 80-100%, Tip, LS Mean Difference of IP2015 − Placebo",male patients with ED; [3],0.03
same,individual RAU value at the base,"male patients with ED; Patient 176, 4 hours postdose",21
same,individual RAU value at the tip,"male patients with ED; Patient 176, 4 hours postdose",19
same,individual TAU value at the base,"male patients with ED; Patient 176, 4 hours postdose",14
same,individual TAU value at the tip,"male patients with ED; Patient 176, 4 hours postdose",8
same,individual RAU value at the base,"male patients with ED; Patient 177, 4 hours postdose",14
same,individual RAU value at the tip,"male patients with ED; Patient 177, 4 hours postdose",13
same,individual TAU value at the base,"male patients with ED; Patient 177, 4 hours postdose",11
same,individual TAU value at the tip,"male patients with ED; Patient 177, 4 hours postdose",9
same,individual RAU value at the base,"male patients with ED; Patient 191, 4 hours postdose",4
same,individual RAU value at the tip,"male patients with ED; Patient 191, 4 hours postdose",5
same,individual TAU value at the base,"male patients with ED; Patient 191, 4 hours postdose",7
same,individual TAU value at the tip,"male patients with ED; Patient 191, 4 hours postdose",7
